# Values quoted from earlier work, collected in patent publication US10201964B2, “Treatment for reducing the toxicity of 3D-printed parts” (The Regents of the University of California, priority 2015, dated 2019).
# Assays:
# [1] = when used as scaffolds
structure (smiles),measurement,setting,value
C=CC(=O)O [acrylic acid],toxic effects on embryonic and fetal development,rat fetuses,toxic effects on embryonic and fetal development in rat fetuses
C=C(C)C(=O)O [methacrylic acid],toxic effects on embryonic and fetal development,rat fetuses,toxic effects on embryonic and fetal development in rat fetuses
C=C(C)C(=O)OC [methylmethacrylate],cardiovascular failure,[1],associated with irreversible cardiovascular failure
